Assays:
Type in all cases: cell-based
[1] = test system: SAS (human oral squamous-cell carcinoma cell); experiment: Preferential antiproliferative activity, SAS
Protocol: (§1) Determination of GI50 of compounds 13a, 13c, 14a, 14c, 15a, 16a was conducted substantially according to the method as described in the preceding section A entitled “Evaluation of antiproliferative activity”, except that the normal cell line MRC-5 was also utilized, and that camptothecin and daunorubicin were tested instead of compounds 1, 2, 3. The concentration of the respective test compound, which can reduce absorbance by 50% (compared with DMSO), is regarded as GI50, and can be determined via dose-response curves. Determination of GI50 was conducted thrice for each test compound. GI50 is expressed as mean±SD.
(§2) SI stands for selectivity index and was calculated by substituting GI50 into the following formula: D=E/F (2) where • D=SI • E=GI50 of the respective test compound for cells of the normal cell line • F=GI50 of the respective test compound for cells of the cancer cell line The experimental results are summarized in Table 4. […]

[2] = test system: NCI-H460 (non-small cell lung carcinoma cell); experiment: MTT antiproliferative assay (cell growth %, GI50), NCI-H460
How it was run: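 Cells exposed to compounds in DMSO or vehicle for 48 hours; MTT (2 mg/mL) added before and after treatment for 2 hours, formazan dissolved in DMSO and OD570 read. GI50 from three determinations, reported as mean±SD.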

[3] = test system: HeLa (human cervical epithelioid carcinoma cell); experiment: Preferential antiproliferative activity, HeLa
Protocol: as §1, §2

[4] = test system: NCI-H1299 (non-small cell lung carcinoma cell); experiment: Preferential antiproliferative activity, NCI-H1299
Protocol: as §1, §2

[5] = test system: BT483 (human breast carcinoma cell); experiment: Preferential antiproliferative activity, BT483
Protocol: as §1, §2

[6] = test system: A549 (human lung adenocarcinoma cell); experiment: Preferential antiproliferative activity, A549
Protocol: as §1, §2

SMILES: C/C(=N\OCCN)c1ccc(Nc2c3ccccc3nc3occc23)cc1 [Compound 13a, (E)-1-(4-(furo[2,3-b]quinolin-4-ylamino)phenyl)ethanone O-2-aminoethyl oxime]
- GI50 ([1]; Homo sapiens, mean±SD): 15.5 ± 2.6 µM
- SI SAS ([1]; versus MRC-5): 2.76
- SI NCI-H460 ([2]; GI50 MRC-5 / GI50 NCI-H460): 68.02
- activity at 4000 µg/mL ([2]; Homo sapiens, NCI-H460, 4 mg/ml, 48 hours, MTT): 33%
- activity at 20000 µg/mL ([2]; Homo sapiens, NCI-H460, 20 mg/ml, 48 hours, MTT): -1%
- GI50 ([2]; Homo sapiens, NCI-H460, mean±SD, read-out: GI50 NCI-H460): 0.63 ± 0.03 µM
- GI50 ([3]; Homo sapiens, HeLa, mean±SD): 8.31 ± 0.6 µM
- SI HeLa ([3]; versus MRC-5): 5.16
- GI50 ([4]; Homo sapiens, NCI-H1299, mean±SD): 3.08 ± 1.12 µM
- SI NCI-H1299 ([4]; versus MRC-5): 13.91
- GI50 ([5]; Homo sapiens, BT-483, mean±SD): 10.2 ± 0.9 µM
- SI BT483 ([5]; versus MRC-5): 4.22
- GI50 ([6]; Homo sapiens, A549, mean±SD): 6.58 ± 2.99 µM
- SI A549 ([6]; versus MRC-5): 6.51

— US8952033B2, “4-anilinofuro[2,3-b]quinoline derivatives, their preparation processes, and pharmaceutical compositions comprising the same” (Kaohsiung Medical University, priority 2011, dated 2015)
